Test results reported in patent publication US20150150246A1, “USE OF INSECT GROWTH REGULATORS IN COCKROACH CONTROL” (MCLAUGHLIN GORMLEY KING COMPANY, priority 2013, published 2015).
Where two headings read alike, the source gives them in different places.

Columns and labels:
[1] = system: German cockroach males; settings: cited from earlier work
[2] = system: German cockroaches; settings: male, German cockroach, in vivo, po
Protocol: Adult male German cockroaches were obtained directly from German cockroach colonies maintained in the laboratory after a brief exposure to CO2 to facilitate handling. Cohorts of similar age (˜11 weeks old), adult male cockroaches (˜300 individuals) were randomly selected and moved into holding containers (Lock&Lock containers, Lock&Lock Co. Ltd., Dallas, Tex., USA) using a pair of soft tissue forceps. Cockroaches were starved in holding containers for 48 hours. Following starvation, cockroaches were transferred into the fecal collection apparatus. The fecal collection apparatus consisted of two vertically connected holding containers (Lock&Lock Co. Ltd., Dallas, Tex., USA) separated by a mesh screen. Cockroaches were introduced into the upper compartment of the collection apparatus and fecal pellets were collected from the floor of the lower container. The floor of the lower container was sealed with aluminum foil to facilitate the removal of fecal pellets. […] Fecal pellets were collected weekly until a sufficient amount of faeces was obtained to achieve analytical quantification. Quantification of pyriproxyfen was made by standard high-performance liquid chromatography-mass spectrometry (HPLC-MS) developed for pyriproxyfen. […]

[3] = system: cockroaches; assay: Efficacy of bait at different pyriproxyfen concentrations; settings: in vivo
Protocol: In one embodiment, the bait comprises abamectin at 0.05% and pyriproxyfen at 0.5% by weight. Efficacy was observed from 0.05 to 1.0% of pyriproxyfen. No higher doses were tested due to physical changes to the matrix, but higher amounts could be used by modifying the matrix. Pyriproxyfen is non-repellent so biologically 1.0% is not an absolute upper concentration limit.

[4] = system: German cockroaches; assay: Reproductive inhibition by harborages contaminated with pyriproxyfen-containing fecal pellets (secondary exposure); format: in vivo, German cockroach

Compound: N#Cc1nn(-c2c(Cl)cc(C(F)(F)F)cc2Cl)c(N)c1[S+]([O-])C(F)(F)F (stereo not drawn) [fipronil]
- mortality of German cockroach males ([1]; 24-hour post-bait introduction, laboratory studies): 100%

Compound: CC(COc1ccc(Oc2ccccc2)cc1)Oc1ccccn1 (stereo not drawn) [pyriproxyfen]
- portion of ingested pyriproxyfen present in the frass [2]: ~60%
- repellency [3]: non-repellent
- suppression of the reproductive output of exposed cockroaches ([4]; consumption of pyriproxyfen contaminated frass (secondary exposure)): 100%
- suppression of reproductive maturation ([4]; fecal pellets deposited following consumption of pyriproxyfen): 100%

Compound: abamectin
- mortality of German cockroach males ([1]; in 5 days, same conditions): 100%
